Calls of active or inactive are those of the source.
Key:
Achaea janata [1] = test: Antifeedant activity against fourth instar larvae of Achaea janata fed on compound treated castor leaves at 200 ppm after 24 hrs by leaf disc method; assay type: functional, organism-based
Aspergillus niger = test: Antifungal activity against Aspergillus niger at 50 ug/ml after 72 hrs by disc diffusion method; assay type: functional, organism-based
Penicillium = test: Antifungal activity against Penicillium at 50 ug/ml after 72 hrs by disc diffusion method; assay type: functional, organism-based
Candida albicans = test: Antifungal activity against Candida albicans at 250 ug/ml after 72 hrs by disc diffusion method; assay type: functional; conditions: for zone of inhibition at 250 µg/mL: read-out: IZ
Enterococcus faecalis = test: Antibacterial activity against Enterococcus faecalis at 250 ug/ml after 24 to 45 hrs by disc diffusion method; assay type: functional; conditions: for zone of inhibition at 250 µg/mL: read-out: IZ
Proteus vulgaris = test: Antibacterial activity against Proteus vulgaris at 250 ug/ml after 24 to 45 hrs by disc diffusion method; assay type: functional; conditions: read-out: IZ
Klebsiella pneumoniae = test: Antibacterial activity against Klebsiella pneumoniae at 250 ug/ml after 24 to 45 hrs by disc diffusion method; assay type: functional; conditions: read-out: IZ
Pseudomonas = test: Antibacterial activity against Pseudomonas at 250 ug/ml after 24 to 45 hrs by disc diffusion method; assay type: functional; conditions: read-out: IZ
Staphylococcus aureus = test: Antibacterial activity against Staphylococcus aureus at 250 ug/ml after 24 to 45 hrs by disc diffusion method; assay type: functional; conditions: read-out: IZ
Escherichia coli = test: Antibacterial activity against Escherichia coli at 250 ug/ml after 24 to 45 hrs by disc diffusion method; assay type: functional; conditions: read-out: IZ
Achaea janata [2] = test: Antifeedant activity against fourth instar larvae of Achaea janata fed on compound treated castor leaves at 150 ppm after 24 hrs by leaf disc method; assay type: functional, organism-based

Row | SMILES | Activity (Achaea janata [1]) | Activity (Aspergillus niger) | Activity (Penicillium) | zone of inhibition at 250 µg/mL (Candida albicans) [mm] | Activity (Enterococcus faecalis) | zone of inhibition at 250 µg/mL (Proteus vulgaris) [mm] | zone of inhibition at 250 µg/mL (Klebsiella pneumoniae) [mm] | zone of inhibition at 250 µg/mL (Pseudomonas) [mm] | zone of inhibition at 250 µg/mL (Staphylococcus aureus) [mm] | zone of inhibition at 250 µg/mL (Escherichia coli) [mm] | zone of inhibition at 250 µg/mL (Enterococcus faecalis) [mm] | Activity (Candida albicans) | Activity (Achaea janata [2])
1 | Fc1ccc2c(c1)CN1CN2Cc2cc(F)ccc21 | Active | inactive | inactive | 8 | inactive | 13 | 13 | 8 | 13 | 13 |  |  | 
2 | Cc1cc2c(cc1Cl)N1Cc3cc(C)c(Cl)cc3N(C2)C1 | Active | inactive | inactive | 13 |  | 8 | 13 | 13 | 8 | 8 | 13 |  | 
3 | Clc1ccc2c(c1)CN1CN2Cc2cc(Cl)ccc21 | Active | inactive | inactive |  | inactive | 13 | 13 | 13 | 13 | 13 |  | inactive | 
4 | Clc1cccc2c1N1Cc3cccc(Cl)c3N(C2)C1 | Active | inactive | inactive | 8 |  | 8 | 8 | 8 | 13 | 8 | 13 |  | 
5 | Cc1cc(Br)cc2c1N1Cc3cc(Br)cc(C)c3N(C2)C1 | Active | inactive | inactive | 8 |  | 8 | 13 | 13 | 8 | 8 | 13 |  | 
6 | Cc1ccc2c(c1Br)CN1CN2Cc2c1ccc(C)c2Br | Active | inactive | inactive | 8 |  | 13 | 13 | 13 | 13 | 13 | 8 |  | 
7 | Cc1cc(F)c2c(c1)CN1CN2Cc2cc(C)cc(F)c21 | Active | inactive | inactive | 8 | inactive | 13 | 13 | 8 | 13 | 13 |  |  | 
8 | Clc1ccc2c(c1)N1Cc3ccc(Cl)cc3N(C2)C1 | Active | inactive | inactive | 8 |  | 13 | 13 | 13 | 13 | 13 | 13 |  | 
9 | Brc1cccc2c1N1Cc3cccc(Br)c3N(C2)C1 | Active | inactive | inactive |  | inactive | 8 | 8 | 8 | 8 | 13 |  | inactive | 
10 | Fc1cccc2c1N1Cc3cccc(F)c3N(C2)C1 | Active | inactive | inactive | 8 | inactive | 8 | 8 | 8 | 8 | 13 |  |  | 
11 | Fc1ccc2c(c1)N1Cc3ccc(F)cc3N(C2)C1 | Active | inactive | inactive | 8 | inactive | 13 | 13 | 8 | 13 | 13 |  |  | 
12 | Cc1ccc2c(c1Cl)CN1CN2Cc2c1ccc(C)c2Cl | Active | inactive | inactive | 13 |  | 13 | 13 | 13 | 13 | 13 | 8 |  | 
13 | Cc1cc2c(cc1F)N1Cc3cc(C)c(F)cc3N(C2)C1 | Active | inactive | inactive | 13 |  | 13 | 13 | 13 | 13 | 13 | 8 |  | 
14 | COc1cc2c(cc1Cl)N1Cc3cc(OC)c(Cl)cc3N(C2)C1 | Active | inactive | Active | 20 |  | 20 | 20 | 20 | 20 | 20 | 8 |  | 
15 | Cc1cc(Cl)cc2c1N1Cc3cc(Cl)cc(C)c3N(C2)C1 | Active | inactive | Active | 8 |  | 8 | 13 | 13 | 8 | 8 | 13 |  | 
16 | Fc1cc2c(cc1Cl)N1Cc3cc(F)c(Cl)cc3N(C2)C1 | Active | inactive | Active | 13 | inactive | 13 | 13 | 13 | 13 | 13 |  |  | Active
17 | Clc1cccc2c1CN1CN2Cc2c(Cl)cccc21 | Active | inactive | inactive | 8 |  | 8 | 8 | 8 | 13 | 8 | 13 |  | 
18 | O=C(c1ccccc1)c1cc(Cl)cc2c1N1Cc3cc(Cl)cc(C(=O)c4ccccc4)c3N(C2)C1 | Active | Active | inactive | 20 | inactive | 13 | 13 | 13 | 13 | 13 |  |  | 
19 | Brc1ccc2c(c1)N1Cc3ccc(Br)cc3N(C2)C1 | Active | inactive | inactive | 8 | inactive | 8 | 8 | 8 | 13 | 8 |  |  | 
20 | Cc1cc(Cl)c2c(c1)CN1CN2Cc2cc(C)cc(Cl)c21 | Active | inactive | inactive |  | inactive | 13 | 13 | 8 | 13 | 13 |  | inactive | 
21 | Brc1cccc2c1CN1CN2Cc2c(Br)cccc21 | Active | inactive | inactive | 8 |  | 8 | 13 | 13 | 8 | 8 | 13 |  | 
22 | COc1ccc2c(c1Cl)CN1CN2Cc2c1ccc(OC)c2Cl | Active | inactive | Active | 20 |  | 20 | 20 | 20 | 20 | 20 | 13 |  | 
23 | COc1ccc2c(c1Br)CN1CN2Cc2c1ccc(OC)c2Br | Active | Active | Active | 13 |  | 20 | 20 | 20 | 20 | 20 | 13 |  | 

Source: ChEMBL document CHEMBL3046842, “Antimicrobial and insect antifeedant activities of some Trogers bases” (2012)
